ChEMBL document CHEMBL1201862, “PubChem BioAssay data set” (2004)
Active and inactive are the calls of the source. Rule as the data show it, for most assays here: actives have a measured EC50 and inactives only a lower limit.

How the values were obtained:
[1] = biological target: FAD-linked sulfhydryl oxidase ALR (Homo sapiens, UniProt P55789); test: inhibitors of human ALR sulfhydryl oxidase, dose response, biochemical, H2O2 detection, luminescence, cherry-pick (AID 493248)
[2] = biological target: T1, Zinc finger protein mex-5 (Caenorhabditis elegans, UniProt Q9XUB2); test: MEX-5/TCR-2 RNA interaction inhibitors, dose response, biochemical, C. elegans, fluorescence polarization (AID 1960)
T1 sequence (Q9XUB2 whole entry): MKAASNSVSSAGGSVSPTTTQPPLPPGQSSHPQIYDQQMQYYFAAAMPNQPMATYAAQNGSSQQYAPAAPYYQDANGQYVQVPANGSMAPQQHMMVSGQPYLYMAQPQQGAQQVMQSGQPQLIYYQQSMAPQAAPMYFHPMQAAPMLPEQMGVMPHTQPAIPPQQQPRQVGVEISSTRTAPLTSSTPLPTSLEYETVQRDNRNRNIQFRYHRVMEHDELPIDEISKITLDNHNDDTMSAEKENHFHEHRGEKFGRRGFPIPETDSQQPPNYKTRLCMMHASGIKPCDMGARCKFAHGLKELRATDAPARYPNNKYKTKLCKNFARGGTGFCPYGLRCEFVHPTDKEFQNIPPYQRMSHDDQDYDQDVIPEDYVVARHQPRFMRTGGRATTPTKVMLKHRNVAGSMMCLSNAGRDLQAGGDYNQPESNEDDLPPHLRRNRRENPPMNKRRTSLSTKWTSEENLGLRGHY

[3] = biological target: T2, RNA-binding protein pos-1 (Caenorhabditis elegans, UniProt G5EF15); test: inhibitors of POS-1/mex-3 RNA binding, dose response, biochemical, fluorescence polarization (AID 1964)
T2 sequence (G5EF15 whole entry): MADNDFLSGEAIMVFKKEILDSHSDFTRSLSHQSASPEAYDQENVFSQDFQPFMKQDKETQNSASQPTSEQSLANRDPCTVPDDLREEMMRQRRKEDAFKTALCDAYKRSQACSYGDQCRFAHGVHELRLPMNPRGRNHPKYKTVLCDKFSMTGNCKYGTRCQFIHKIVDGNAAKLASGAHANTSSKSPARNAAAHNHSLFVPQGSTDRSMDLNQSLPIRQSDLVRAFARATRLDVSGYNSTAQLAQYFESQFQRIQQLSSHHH

[4] = biological target: T3, Replicative DNA helicase DnaB (Mycobacterium tuberculosis, UniProt P9WMR3); test: DnaB intein splicing inhibitors, dose response, biochemical, cell-free fluorescence (AID 449749); type: functional
T3 sequence (P9WMR3 whole entry): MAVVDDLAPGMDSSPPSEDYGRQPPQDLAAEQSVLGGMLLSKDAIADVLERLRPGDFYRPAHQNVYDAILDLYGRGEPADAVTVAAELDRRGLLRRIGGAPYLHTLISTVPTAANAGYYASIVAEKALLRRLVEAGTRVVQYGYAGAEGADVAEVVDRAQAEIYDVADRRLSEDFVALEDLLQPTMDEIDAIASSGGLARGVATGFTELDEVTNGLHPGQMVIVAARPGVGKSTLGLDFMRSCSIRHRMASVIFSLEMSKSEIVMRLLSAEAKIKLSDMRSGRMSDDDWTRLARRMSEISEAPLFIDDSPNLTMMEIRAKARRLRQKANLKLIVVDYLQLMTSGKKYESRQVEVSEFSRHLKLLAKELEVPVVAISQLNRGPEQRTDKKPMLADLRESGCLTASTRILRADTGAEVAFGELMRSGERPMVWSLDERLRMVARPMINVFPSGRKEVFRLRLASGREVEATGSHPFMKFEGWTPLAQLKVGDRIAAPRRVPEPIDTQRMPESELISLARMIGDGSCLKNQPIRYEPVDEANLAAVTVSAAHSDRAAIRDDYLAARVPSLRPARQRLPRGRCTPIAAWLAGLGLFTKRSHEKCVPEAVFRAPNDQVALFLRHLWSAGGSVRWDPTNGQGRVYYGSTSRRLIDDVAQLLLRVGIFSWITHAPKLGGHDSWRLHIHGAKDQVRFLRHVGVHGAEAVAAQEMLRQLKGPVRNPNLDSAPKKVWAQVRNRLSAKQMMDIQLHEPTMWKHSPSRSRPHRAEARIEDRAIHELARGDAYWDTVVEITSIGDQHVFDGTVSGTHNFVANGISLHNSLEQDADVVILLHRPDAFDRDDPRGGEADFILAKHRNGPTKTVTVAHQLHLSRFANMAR

[5] = biological target: T4, Protein RecA (Mycobacterium tuberculosis, UniProt P9WHJ3); test: Fluorescence Cell-Free Homogeneous Dose Retest to Identify Inhibitors of RecA-Intein Splicing Activity. [Related pubchem assays (depositor defined):AID2097, AID2223, AID489010, AID492950]; type: functional
T4 sequence (P9WHJ3 whole entry): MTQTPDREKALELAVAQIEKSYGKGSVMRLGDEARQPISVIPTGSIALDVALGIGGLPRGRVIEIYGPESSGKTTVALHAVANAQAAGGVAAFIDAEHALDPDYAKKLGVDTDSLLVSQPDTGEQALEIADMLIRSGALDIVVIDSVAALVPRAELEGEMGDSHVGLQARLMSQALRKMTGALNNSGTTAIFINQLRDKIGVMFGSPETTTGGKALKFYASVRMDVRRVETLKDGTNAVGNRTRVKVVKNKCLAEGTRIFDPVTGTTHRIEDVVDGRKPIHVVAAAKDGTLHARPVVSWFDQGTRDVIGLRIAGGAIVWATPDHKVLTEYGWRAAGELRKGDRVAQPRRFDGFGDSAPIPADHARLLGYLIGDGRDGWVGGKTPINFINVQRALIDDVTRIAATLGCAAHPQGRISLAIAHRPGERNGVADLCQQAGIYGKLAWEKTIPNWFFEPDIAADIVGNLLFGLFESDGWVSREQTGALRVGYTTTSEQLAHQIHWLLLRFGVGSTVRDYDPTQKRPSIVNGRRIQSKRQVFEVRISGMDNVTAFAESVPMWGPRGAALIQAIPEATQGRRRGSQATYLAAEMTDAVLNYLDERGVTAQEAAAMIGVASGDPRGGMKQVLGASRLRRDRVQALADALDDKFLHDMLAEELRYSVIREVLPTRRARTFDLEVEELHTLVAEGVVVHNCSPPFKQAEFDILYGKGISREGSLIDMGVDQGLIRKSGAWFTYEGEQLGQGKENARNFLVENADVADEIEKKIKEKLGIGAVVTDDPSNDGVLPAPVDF

[6] = biological target: T5, Rac GTPase-activating protein 1 (Homo sapiens, UniProt Q9H0H5); test: MgcRacGAP GTPase-activating activity inhibitors, confirmation, biochemical, ADP Hunter fluorescence, primary and confirmatory (AID 624330); type: functional
T5 sequence (Q9H0H5 whole entry): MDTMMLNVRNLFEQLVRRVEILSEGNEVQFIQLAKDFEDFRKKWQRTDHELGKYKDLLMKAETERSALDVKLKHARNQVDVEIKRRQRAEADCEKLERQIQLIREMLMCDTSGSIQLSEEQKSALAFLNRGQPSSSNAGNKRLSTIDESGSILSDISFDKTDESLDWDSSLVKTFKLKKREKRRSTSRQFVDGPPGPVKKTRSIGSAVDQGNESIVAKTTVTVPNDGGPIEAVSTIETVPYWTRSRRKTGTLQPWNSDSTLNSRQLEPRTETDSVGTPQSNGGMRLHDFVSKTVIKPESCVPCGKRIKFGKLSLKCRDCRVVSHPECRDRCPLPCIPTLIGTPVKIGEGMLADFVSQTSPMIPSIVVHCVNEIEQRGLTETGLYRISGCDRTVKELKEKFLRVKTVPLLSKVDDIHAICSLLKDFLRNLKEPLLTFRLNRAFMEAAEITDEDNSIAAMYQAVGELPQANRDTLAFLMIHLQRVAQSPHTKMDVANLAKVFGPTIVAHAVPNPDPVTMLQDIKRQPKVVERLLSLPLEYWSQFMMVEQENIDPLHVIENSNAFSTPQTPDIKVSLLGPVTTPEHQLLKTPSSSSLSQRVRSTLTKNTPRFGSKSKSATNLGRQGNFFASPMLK

[7] = biological target: T6, Streptokinase A (Streptococcus pyogenes serotype M1, UniProt P10520); test: S. pyogenes streptokinase expression inhibitors, potency, dose response, plasminogen activation absorbance, OD405 (AID 1914); type: functional, Streptococcus pyogenes M1 GAS
T6 sequence (P10520 whole entry): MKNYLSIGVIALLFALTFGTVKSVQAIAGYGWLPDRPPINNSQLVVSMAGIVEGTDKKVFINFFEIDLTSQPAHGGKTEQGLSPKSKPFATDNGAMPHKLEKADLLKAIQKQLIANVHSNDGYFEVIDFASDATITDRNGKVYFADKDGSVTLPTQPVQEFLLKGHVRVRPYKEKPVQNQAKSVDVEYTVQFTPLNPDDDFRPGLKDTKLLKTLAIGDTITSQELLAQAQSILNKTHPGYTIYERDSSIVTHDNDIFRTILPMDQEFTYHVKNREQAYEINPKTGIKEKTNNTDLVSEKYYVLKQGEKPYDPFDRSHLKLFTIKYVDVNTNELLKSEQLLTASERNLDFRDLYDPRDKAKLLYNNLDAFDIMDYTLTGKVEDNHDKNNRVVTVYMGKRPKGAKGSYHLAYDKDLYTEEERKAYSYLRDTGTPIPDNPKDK

[8] = test system: Streptococcus sp. 'group A'; test: growth inhibition of control SK(-) GAS strain, dose response, counter-screen for streptokinase expression inhibitor project, luminescence, kanamycin, BacTiterGlo, confirmation (AID 1900); type: functional, organism-based
[9] = test system: Streptococcus; test: Group A Streptococcus viability loss, dose response, counter-screen for streptokinase expression inhibitor project, luminescence, BacTiterGlo (AID 1915); type: functional, organism-based
[10] = ZM109 Env clade C HIV-1 fusion inhibitors, dose response, HeLa effector, CEM target cells, luciferase, cherry-pick (AID 652058); type: functional, cell-based
[11] = inhibitors of clade B AD8 Env fusion, dose response, cell-based, cherry-pick (AID 652062); type: functional

Sequence of FAD-linked sulfhydryl oxidase ALR (P55789 whole entry): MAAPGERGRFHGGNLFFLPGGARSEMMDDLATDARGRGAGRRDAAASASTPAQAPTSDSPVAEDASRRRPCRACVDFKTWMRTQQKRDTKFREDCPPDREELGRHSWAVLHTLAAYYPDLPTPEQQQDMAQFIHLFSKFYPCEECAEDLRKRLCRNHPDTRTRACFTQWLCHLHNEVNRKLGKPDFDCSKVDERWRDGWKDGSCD

Nc1scc(-c2ccncc2)c1Cl
AC50 [1]: 1.73 µM (active)

Nc1ncc(Br)cc1S(=O)(=O)NCCC(=O)N1CCN(c2ccccc2)CC1
AC50 [1]: 1.56 µM (active)

Cc1ccc2nc(O)c(CN(CCO)Cc3nnnn3CCc3ccccc3)cc2c1
EC50 [2]: > 300 µM (not active)
EC50 [3]: > 300 µM (not active)

Cc1ccc(N2C(=O)C(Cl)=C(NCCO)C2=O)c(C)c1
AC50 [4]: 155 µM (active)
EC50 [5]: 10.8 µM (active)

O=C(N[C@H]1CP(=O)(Oc2ccccc2)O[C@H](COCc2ccccc2)[C@H]1O)C(Cl)(Cl)Cl (some centres not stated)
EC50 [2]: > 300 µM (not active)
EC50 [3]: > 300 µM (not active)

CN(C)c1ccc(C(c2nnnn2C(C)(C)C)N2CCN(C(=O)c3ccco3)CC2)cc1 (configuration not stated)
AC50 [1]: 3.83 µM (active)

COC(=O)CCC(=O)OC1(C)C(=O)C2=CN(CCc3ccccn3)C(c3ccc(OC)cc3)=CC2=C(Br)C1=O (configuration not stated)
EC50 [2]: 8.83 µM (active)
EC50 [3]: 68.5 µM (active)

CC(C)(C)OC(=O)NCCCC1=CC2=CC(=O)C(C)(OC(=O)c3ccco3)C(=O)C2=CO1 (configuration not stated)
EC50 [2]: 46.8 µM (active)
EC50 [3]: 46.9 µM (active)

Nc1ccc2[nH]c(C3CCCCC3)nc2c1
IC50 [6]: 70.2 µM (active)
AC50 [1]: 1.13 µM (active)

COc1ccc(N2CCN(C(=O)Cc3ccc(OC)c(OC)c3)CC2)cc1
AC50 [1]: 7.7 µM (active)

Cc1ccc(CNC(=O)CCN2C(=O)[C@@H]3Cc4ccccc4CN3C2=O)cc1
AC50 [4]: 373 µM (active)
EC50 [5]: > 380 µM (inactive)

Cc1ccc(/C=C2/Sc3ccc(C(=O)N4CCC5(CC4)OCCO5)cc3NC2=O)cc1
EC50 [7]: > 150 µM (not active)
EC50 [2]: 8.06 µM (inconclusive)
EC50 [8]: 7.6 µM (active)
EC50 [9]: 9.49 µM (active)
EC50 [3]: 4.37 µM (active)

O=C(CNCC1CCCCC1)Nc1ccc(N2CCCCC2)cc1
AC50 [1]: 13.4 µM (active)

CC1(S(=O)(=O)O)CC(=O)c2ccccc2C1=O (configuration not stated)
AC50 [4]: 5.26 µM (active)
EC50 [5]: 3.03 µM (active)

CCCCC(=O)NC(c1cccc([N+](=O)[O-])c1)c1c(OC(C)=O)ccc2ccccc12 (configuration not stated)
AC50 [4]: 41.6 µM (active)
EC50 [5]: 25.4 µM (active)

O=[N+]([O-])/C(C(Cl)=C(Cl)Cl)=C(/Sc1ccccc1)N1CCCCC1
AC50 [4]: 3.88 µM (active)
EC50 [5]: 7.05 µM (active)

COCc1cc(O)n2ncc(-c3ccsc3)c2n1
AC50 [1]: 3.5 µM (active)

O=C(Nc1cccc(OC(=O)c2ccc(Br)o2)c1)c1ccccc1
AC50 [4]: 0.0485 µM (inconclusive)
EC50 [5]: 9.2 µM (active)

CCCc1n[nH]c2c1C(c1ccc(O)c(OC)c1)C(C#N)=C(N)O2 (configuration not stated)
AC50 [4]: 57.1 µM (active)
EC50 [5]: 8.18 µM (active)

CC1CC(C)CN(C(=O)c2ccc3c(c2)N(Cc2ccccc2)CCS3)C1 (configuration not stated)
AC50 [4]: 5.01 µM (active)
EC50 [5]: 23.6 µM (active)

O=C(CCl)NCc1c(Cl)cccc1-n1cccc1
AC50 [4]: > 380 µM (inactive)
EC50 [5]: 15.3 µM (active)

COc1ccccc1C(=O)Nc1ccc2c(c1)nc1n2CCSC1
AC50 [1]: 0.076 µM (active)

Cc1ccc(N2C(=O)NC(=O)/C(=C\c3cc(C)n(-c4cc(C(=O)O)cc(C(=O)O)c4)c3C)C2=O)cc1
EC50 [2]: > 300 µM (not active)
EC50 [3]: > 300 µM (not active)

O=C(c1ccccc1)N1CCC(c2nc(-c3ccc(S(=O)(=O)NCC4CCCO4)cc3)no2)CC1 (configuration not stated)
AC50 [10]: 24.4 µM (active)
AC50 [11]: 11.3 µM (active)

c1ccc(CN2C3=NCCN3c3ccccc32)cc1
AC50 [1]: 40.9 µM (active)

CN(C)C(=O)C[C@H]1C[C@@H]2c3cc(NS(=O)(=O)c4ccc(F)cc4)ccc3O[C@@H]2[C@@H](CO)O1
AC50 [10]: 54.1 µM (active)

CCCCCC(=O)N/N=C/c1cc(Br)c(O)c(OC)c1
AC50 [1]: 0.098 µM (active)
